Laboratory results from ChEMBL document CHEMBL5463729, “Data for DCP probe BAY 1753011” (2023).
Activity calls are given as the source filed them. No cut-off for these calls is given here.

Assays:
[1] = target: Vasopressin V2 receptor (Homo sapiens, UniProt P30518); test: Radiometric AVPR2 binding assay (Eurofins #287610)
[2] = target: ALK tyrosine kinase receptor (Homo sapiens) (UniProt Q9UM73); test: Inhibition of ALK(h) at 10.0 µM in the Eurofins Kinase panel; details: Compound concentration 10.0 uM
[3] = target: Calcium/calmodulin-dependent protein kinase type II subunit gamma (Homo sapiens) (UniProt Q13555); test: Inhibition of CaMKIIgamma(h) at 10.0 µM in the Eurofins Kinase panel; details: Compound concentration 10.0 uM
[4] = target: Cyclin-dependent kinase-like 3 (Homo sapiens) (UniProt Q8IVW4); test: Inhibition of CDKL3(h) at 10.0 µM in the Eurofins Kinase panel; details: Compound concentration 10.0 uM
[5] = target: Casein kinase I isoform alpha (Homo sapiens) (UniProt P48729); test: Inhibition of CK1alpha(h) at 10.0 µM in the Eurofins Kinase panel; details: Compound concentration 10.0 uM
[6] = target: Death-associated protein kinase 1 (Homo sapiens) (UniProt P53355); test: Inhibition of DAPK1(h) at 10.0 µM in the Eurofins Kinase panel; details: Compound concentration 10.0 uM
[7] = target: Serine/threonine-protein kinase DCLK1 (Homo sapiens) (UniProt O15075); test: Inhibition of DCAMKL1(h) at 10.0 µM in the Eurofins Kinase panel; details: Compound concentration 10.0 uM
[8] = target: Serine/threonine-protein kinase DCLK3 (Homo sapiens) (UniProt Q9C098); test: Inhibition of DCAMKL3(h) at 10.0 µM in the Eurofins Kinase panel; details: Compound concentration 10.0 uM
[9] = target: Ephrin type-A receptor 8 (Homo sapiens) (UniProt P29322); test: Inhibition of EphA8(h) at 10.0 µM in the Eurofins Kinase panel; details: Compound concentration 10.0 uM
[10] = target: Beta-adrenergic receptor kinase 1 (Homo sapiens) (UniProt P25098); test: Inhibition of GRK2(h) at 10.0 µM in the Eurofins Kinase panel; details: Compound concentration 10.0 uM
[11] = target: G protein-coupled receptor kinase 4 (Homo sapiens) (UniProt P32298); test: Inhibition of GRK4(h) at 10.0 µM in the Eurofins Kinase panel; details: Compound concentration 10.0 uM
[12] = target: Mitogen-activated protein kinase 10 (Homo sapiens) (UniProt P53779); test: Inhibition of JNK3(h) at 10.0 µM in the Eurofins Kinase panel; details: Compound concentration 10.0 uM
[13] = target: Serine/threonine-protein kinase 10 (Homo sapiens) (UniProt O94804); test: Inhibition of LOK(h) at 10.0 µM in the Eurofins Kinase panel; details: Compound concentration 10.0 uM
[14] = target: Megakaryocyte-associated tyrosine-protein kinase (Homo sapiens) (UniProt P42679); test: Inhibition of MATK(h) at 10.0 µM in the Eurofins Kinase panel; details: Compound concentration 10.0 uM
[15] = target: MAP kinase-interacting serine/threonine-protein kinase 2 (Homo sapiens) (UniProt Q9HBH9); test: Inhibition of Mnk2(h) at 10.0 µM in the Eurofins Kinase panel; details: Compound concentration 10.0 uM
[16] = target: Myosin-IIIb (Homo sapiens) (UniProt Q8WXR4); test: Inhibition of MYO3B(h) at 10.0 µM in the Eurofins Kinase panel; details: Compound concentration 10.0 uM
[17] = target: Serine/threonine-protein kinase Nek7 (Homo sapiens) (UniProt Q8TDX7); test: Inhibition of NEK7(h) at 10.0 µM in the Eurofins Kinase panel; details: Compound concentration 10.0 uM
[18] = target: Protein kinase C gamma type (Homo sapiens) (UniProt P05129); test: Inhibition of PKCgamma(h) at 10.0 µM in the Eurofins Kinase panel; details: Compound concentration 10.0 uM
[19] = target: Serine/threonine-protein kinase D3 (Homo sapiens) (UniProt O94806); test: Inhibition of PKD3(h) at 10.0 µM in the Eurofins Kinase panel; details: Compound concentration 10.0 uM
[20] = target: MAP kinase-activated protein kinase 5 (Homo sapiens) (UniProt Q8IW41); test: Inhibition of PRAK(h) at 10.0 µM in the Eurofins Kinase panel; details: Compound concentration 10.0 uM
[21] = target: Ribosomal protein S6 kinase alpha-2 (Homo sapiens) (UniProt Q15349); test: Inhibition of Rsk3(h) at 10.0 µM in the Eurofins Kinase panel; details: Compound concentration 10.0 uM
[22] = target: Mitogen-activated protein kinase 11 (Homo sapiens) (UniProt Q15759); test: Inhibition of SAPK2b(h) at 10.0 µM in the Eurofins Kinase panel; details: Compound concentration 10.0 uM
[23] = target: Testis-specific serine/threonine-protein kinase 3 (Homo sapiens) (UniProt Q96PN8); test: Inhibition of TSSK3(h) at 10.0 µM in the Eurofins Kinase panel; details: Compound concentration 10.0 uM
[24] = target: Wee1-like protein kinase 2 (Homo sapiens) (UniProt P0C1S8); test: Inhibition of Wee1B(h) at 10.0 µM in the Eurofins Kinase panel; details: Compound concentration 10.0 uM
[25] = target: Serine/threonine-protein kinase WNK1 (Homo sapiens) (UniProt Q9H4A3); test: Inhibition of WNK1(h) at 10.0 µM in the Eurofins Kinase panel; details: Compound concentration 10.0 uM
[26] = target: Serine/threonine-protein kinase WNK3 (Homo sapiens) (UniProt Q9BYP7); test: Inhibition of WNK3(h) at 10.0 µM in the Eurofins Kinase panel; details: Compound concentration 10.0 uM
[27] = target: T1, Muscarinic acetylcholine receptor M2 (Homo sapiens) (UniProt P08172); details: Compound concentration 10.0 uM
T1 sequence (whole entry): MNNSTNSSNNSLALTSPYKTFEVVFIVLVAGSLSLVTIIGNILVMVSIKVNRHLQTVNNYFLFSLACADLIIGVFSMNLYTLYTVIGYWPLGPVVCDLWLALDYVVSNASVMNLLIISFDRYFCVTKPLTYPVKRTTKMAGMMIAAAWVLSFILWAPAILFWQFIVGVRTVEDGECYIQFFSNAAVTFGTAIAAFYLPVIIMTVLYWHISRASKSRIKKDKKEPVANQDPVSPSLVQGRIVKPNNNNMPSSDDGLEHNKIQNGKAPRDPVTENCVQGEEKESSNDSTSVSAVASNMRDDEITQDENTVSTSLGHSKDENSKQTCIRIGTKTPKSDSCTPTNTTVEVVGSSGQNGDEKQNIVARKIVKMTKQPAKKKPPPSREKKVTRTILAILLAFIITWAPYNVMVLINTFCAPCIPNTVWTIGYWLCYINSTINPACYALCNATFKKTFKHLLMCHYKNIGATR

[28] = target: B2 bradykinin receptor (Homo sapiens) (UniProt P30411); details: Compound concentration 10.0 uM
[29] = target: Endothelin-1 receptor (Homo sapiens) (UniProt P25101); details: Compound concentration 10.0 uM
[30] = target: Glutamate NMDA receptor (Rattus norvegicus) (UniProt P35439+Q00959+Q00960+Q00961+Q62645+Q8VHN2+Q9R1M7); details: Compound concentration 10.0 uM
[31] = target: T1, Muscarinic acetylcholine receptor M2 (Homo sapiens); details: Compound concentration 10.0 uM; remark: listed apart in the source
[32] = target: Sodium-dependent noradrenaline transporter (Homo sapiens, UniProt P23975); details: Compound concentration 10.0 uM
[33] = target: Androgen receptor (Homo sapiens) (UniProt P10275); details: Compound concentration 10.0 uM
[34] = target: Activin receptor type-2A (Homo sapiens) (UniProt P27037); test: Inhibition of ACTR2(h) at 10.0 µM in the Eurofins Kinase panel; details: Compound concentration 10.0 uM

| SMILES | Ki [1] | inhibition [2] [%] | inhibition [3] [%] | inhibition [4] [%] | inhibition [5] [%] | inhibition [6] [%] | inhibition [7] [%] | inhibition [8] [%] | inhibition [9] [%] | inhibition [10] [%] | inhibition [11] [%] | inhibition [12] [%] | inhibition [13] [%] | inhibition [14] [%] | inhibition [15] [%] | inhibition [16] [%] | inhibition [17] [%] | inhibition [18] [%] | inhibition [19] [%] | inhibition [20] [%] | other results |
| --- | --- | --- | --- | --- | --- | --- | --- | --- | --- | --- | --- | --- | --- | --- | --- | --- | --- | --- | --- | --- | --- |
| O=c1n(Cc2cncn2-c2cccc(Cl)c2)nc(-c2ccc(Cl)cc2)n1C[C@H](O)C(F)(F)F | > 10 µM (not active) | -8.94 | 0.32 | -5.87 | -1.11 | -5.66 | -2.6 | -6.07 | 3.67 | -6.21 | -1.52 | 13.2 | 10.4 | 4.16 | -0.78 | 6.86 | 1.5 | -1.26 | 1.68 | 9.81 | inhibition [21]: -0.87%; inhibition [22]: -0.67%; inhibition [23]: -6.06%; inhibition [24]: 7.62%; inhibition [25]: -5.38%; inhibition [26]: -2.58%; inhibition [27]: -9.34%; inhibition [28]: -10%; inhibition [29]: -3%; inhibition [30]: -8%; inhibition [31]: 17%; inhibition [32]: 8%; inhibition [33]: 9%; inhibition [34]: 6.32% |
| C[C@H](O)c1nc(Cn2nc(-c3ccc(Cl)cc3)n(C[C@H](O)C(F)(F)F)c2=O)nn1-c1cccc(Cl)c1 [PECAVAPTAN] | 0.0006 µM (active) | -3.75 | -3.01 | 0.32 | -1.65 | -1.83 | -1.32 | -4.82 | 4.55 | 5.86 | -0.06 | 0.72 | 2.48 | 0.84 | 3.54 | 2.49 | 3.8 | 3.24 | -0.82 | 11.4 | inhibition [21]: 9.71%; inhibition [22]: 1.32%; inhibition [23]: -7.5%; inhibition [24]: 7.48%; inhibition [25]: 6.35%; inhibition [26]: -3.44%; inhibition [27]: 4.65%; inhibition [28]: 1%; inhibition [29]: 18%; inhibition [30]: 2%; inhibition [31]: 7%; inhibition [32]: 62%; inhibition [33]: 12%; inhibition [34]: 5.43% |
